Legend:
Format in all cases: cell-based, human
WI38 fibroblasts = test: Proliferation (confluency) of WI38 fibroblasts, Example 1; conditions: for cell proliferation: concentration not stated
Description: (§1) The proliferation effects of vitamin C on WI38 fibroblasts were tested. This cell line is useful as an aging model since it is a mortal human cell line that follows the Hayflick limit, in that it undergoes a certain number of cell divisions before stopping. The senescence level in WI38 increased as the cell line divided. […] A membrane-soluble derivative of vitamin C, 6-O-Palmitoyl-L-ascorbic acid (PalmAA), which has an additional fatty acid that allows it to pass through the cell membrane, was also tested. The oxidized derivative of vitamin C, dehydroascorbic acid (DHAA), as Vitamin C is actively converted to DHAA in cell culture media, was tested as well. Insulin was also added to this experiment to upregulate Glut-1 transporter, through which DHAA enters the cell.
A) Cell images of 12-well plate treated with low concentration vitamin C at Day 0, 4 and 5 for PD46. B) Confluency plot calculated through ImageJ of PD46, n=2. C) and D) Expression graphs for ARM (e.g., ELOVL2) and SLC2A1 for PD46, n=3. E) Cell images of 12-well treated with high concentration vitamin C at Day 0, 4 and 5 for PD48. F) Confluency plot calculated through ImageJ of PD48, n=2. G) and […]) Expression graphs for ARM and SLC2A1 for PD48, n=3.
FIG. 2 illustrates phenotypic and genotypic effects of vitamin C treatment were analyzed on younger WI38 PD42 and older WI38 PD58 fibroblasts. A) Cell images of 12-well at Day 0, 1 and 2 of treatment for PD42. B) Confluency plot calculated through ImageJ of PD42, n=2. C) and D) Expression graphs for ARM (e.g., ELOVL2) and SLC2A1 for PD42, n=3. E) Cell images of 12-well at Day 0, 5 and 7 of treatment for PD58. F) Confluency plot calculated through ImageJ of PD58, n=2. G) and H) Expression graphs for ARM (e.g., ELOVL2) and SLC2A1 for […], n=3. I) Cell images of senescence and DAPI staining of PD45.5 fibroblasts. J) Graph of percentage senescence for younger PD32 fibroblast and older PD45.5 fibroblast. n=3.
A) Cell images of 12-well at Day 0 and Day 8 of treatment for PD55. B) Confluency plot calculated through ImageJ for PD55, n=2. C) and D) Expression graph for ARM (e.g., ELOVL2) and SLC2A1 for PD55, n=3.
A) Diagram of postulated pathway for interconversion of DHAA to vitamin C and their effect on fibroblast cells. B) Cell images of 12-well at Day 10 of treatment for PD54. C) Confluency plot calculated through ImageJ of PD54, n=2. D and E) Expression graphs for ARM (e.g., ELOVL2) and SLC2A1 for PD54, n=3. F) Graph of percentage senescence for younger PD32 fibroblast and older PD45.5 fibroblast. n=3. G) Fluorescent ROS assay showing fluorescent ROS relative to total fibroblasts in PD48 fibroblasts.

ELOVL2 [1] = test: ELOVL2 expression in aging WI38 cells (PD55)
Description: (§2) WI38 cells at PD55 (55th population doubling) were incubated with different concentrations of vitamin C (Vc), L-dehydro ascorbic acid (DHAA or DHA), or L-ascorbic acid 2-phosphate (VcP). DHAA (or DHA) is an oxidized form of vitamin C. L-ascorbic acid 2-phosphate (VcP) is a vitamin C derivative. Three concentrations were used for each tested compound and the concentrations included 0.3 mM (equivalent to […]), 1.2 mM, or 1.8 mM.
The expression of ELOVL2 is also observed to be increased with a low concentration of vitamin C and all concentrations of L-ascorbic acid 2-phosphate (VcP) but not with DHAA (FIG. 27).

WI38 cells at PD55 [2] = test: Cell senescence of WI38 PD55 by beta gal staining assay
Description: as §2

WI38 cells at PD55 [3] = test: WI38 PD55 confluency / cell proliferation, Example 6
Description: as §2

aged fibroblast = test: Reversal of biological age / reprogramming of aged fibroblast into iPSCs; conditions: low concentration
Description: As used herein, the terms “biological age (bioage),” “chemical age,” “methylomic age,” and “molecular age” are equivalent or synonymous. The biological age is determined using a set of age-associated markers (e.g., epigenetic markers) of a subject or an organism. In the current disclosure, the biological age is determined from an analysis of the modification status of specific CpG dinucleotide and, in particular, e.g., the methylation status at the C-5 position of cytosine.

ELOVL2 [4] = test: Expression of age-related marker (ARM, e.g. ELOVL2) in WI38 fibroblasts, Example 1
Description: as §1
A) Cell images of 12-well plate treated with low concentration vitamin C at Day 0, 4 and 5 for PD46. B) Confluency plot calculated through ImageJ of PD46, n=2. […] F) Confluency plot calculated through ImageJ of PD48, n=2. […]
FIG. 2 illustrates phenotypic and genotypic effects of vitamin C treatment were analyzed on younger WI38 PD42 and older WI38 PD58 fibroblasts. […] B) Confluency plot calculated through ImageJ of PD42, n=2. […] F) Confluency plot calculated through ImageJ of PD58, n=2. […]
A) Cell images of 12-well at Day 0 and Day 8 of treatment for PD55. B) Confluency plot calculated through ImageJ for PD55, n=2. […]

[5] = all concentrations (0.3 mM, 1.2 mM, 1.8 mM)
[6] = all three concentrations (0.3 mM, 1.2 mM, 1.8 mM)

Which results are given for O=C1O[C@H]([C@@H](O)CO)C(O)=C1O [vitamin C, L-ascorbic acid]?
proliferative effect, older vs younger fibroblast cells (WI38 fibroblasts; 50 μg/mL): more pronounced on older fibroblast cells compared to younger fibroblast cells; fibroblast cell growth / cell death (WI38 fibroblasts; higher concentrations, 200 μg/mL to 500 μg/mL): slowed or inhibited fibroblast cell growth while causing cell death; fibroblast proliferation (WI38 fibroblasts; low concentrations, 50 μg/mL to 100 μg/mL): induced fibroblast proliferation; expression of ELOVL2 (ELOVL2 [1]; low concentration): increased; protection against cell senescence (WI38 cells at PD55 [2]; low concentration): protective against cell senescence; cell proliferation rate (WI38 cells at PD55 [3]; higher concentration, 1.2 mM or 1.8 mM, relative to 0.3 mM): slower cell proliferation rate relative to the concentration at 0.3 mM; cell proliferation (WI38 cells at PD55 [3]; low concentration, 0.3 mM): increase cell proliferation; biological age (aged fibroblast): reversed; reprogramming of aged fibroblast into iPSCs (aged fibroblast): reverted into iPSCs from aged fibroblast

Which results are given for CCCCCCCCCCCCCCCC(=O)OC[C@H](O)[C@H]1OC(=O)C(O)=C1O [6-O-Palmitoyl L-ascorbic acid, 6-O-Palmitoyl-L-ascorbic acid]?
cell proliferation (WI38 fibroblasts): induced minimal proliferation; gene expression change in the age related marker (ELOVL2 [4]): caused no gene expression change in the age related marker

O=C1O[C@H]([C@@H](O)CO)C(O)=C1OP(=O)(O)O [L-ascorbic acid 2-phosphate] was tested. Which “expression of ELOVL2” value (ELOVL2 [1]; [5]) did it give?
The value was “increased”.

And the “protection against cell senescence” value (WI38 cells at PD55 [2]; [5])?
Its value is “protective against cell senescence”.

And the cell proliferation (WI38 cells at PD55 [3]; [6])?
The cell proliferation was “cell proliferation is observed”.

For O=C1O[C@H]([C@@H](O)CO)C(=O)C1=O [DHAA, dehydroascorbic acid], which cell proliferation (WI38 fibroblasts) is on record?
The cell proliferation was “induced lower cell proliferation compared to an equal concentration of vitamin C”.

What about the “expression of ELOVL2” value (ELOVL2 [1]; [5]) of the same compound?
Its value is “not”.

What about the “protection against cell senescence” value (WI38 cells at PD55 [2]; [5]) of the same compound?
The value was “did not exert a protective effect against cell senescence”.

And the cell proliferation (WI38 cells at PD55 [3]; [6])?
The cell proliferation was “increased cell proliferation is not observed”.
